pIC50: −log10 of the molar value. Like-named read-outs stand apart in the source and are kept apart here.

The test system of the experiment is A2780 cells. Put plainly: Deoxy-glucose uptake assay in A2780 cells (14C 2-deoxy-D-glucose transport). In kind it is cell-based. Conditions: Homo sapiens. How it is done:
1. Deoxy-Glucose Uptake Assay in A2780 Cells:
For measurement of ^14C 2-deoxy-D-glucose transport into A2780 cells, cells were seeded in 96-well plates (Cytostar-T Plates Perkin Elmer, 70,000 cells/180 μl/well) in medium complete (RPMI1640+Glutamax (Life technologies #61870)) and grown for 48 hours. After 48 h, cells were washed once with 180 μL KRB (Krebs Ringer Bicarbonate) buffer, and stimulated in a dose dependent manner by adding 10 μL of test compound dilution 0-1.1 mM (11 times higher concentration than final) or 10 μL of 1.1 mM Cytochalasin B solution as negative control, to 90 μL KRB buffer and incubated for 20 minutes. After compound stimulation, the transport of ^14C 2-deoxy-D-glucose was started by adding of 50 μL 2-^14C[U] 2-deoxy-D-glucose solution (109.1 μM 2-deoxy-D-glucose cold and 33 μM 2-^14C[U] 2-deoxy-D-glucose 0.1 μCi/well) for 20 minutes. Transport was stopped by adding 50 μL/well 96 μM Cytochalasin B solution. Plates were measured in a 96-well Wallac Microbeta device. The cpm (counts per minute) values were used to determine the % inhibition values for the test compounds within each experiment. In a first step, the mean background value generated by Cytochalasin B (a potent glucose transporter inhibitor) treated cells, was subtracted from the mean values of the treated cells. All mean values were obtained from triplicates. For %-Inhibition results, the mean value of the untreated cells (just KRB) was set as 100%. All other mean values were calculated to this relation. IC50 were obtained by regression analysis of dose response curve with 7 or 14 concentrations, respectively, for each compound.

The mark [1] stands for this setting: 20 min, inhibition of 14C 2-deoxy-D-glucose transport into A2780 cells, 20 min compound incubation, read-out: IC50.

For the compound `COC(=O)COc1ccc(COc2cc(OC)c(C(=O)N[C@H]3[C@@H](OC)O[C@H](CO)[C@@H](O)[C@@H]3O)cc2Cl)cc1` (relative stereo) [Example 386], the negative-log IC50 (pIC50) (commonly the IC50 on a negative log10 scale, so that one unit is a factor of ten) under setting [1] is 5.28.

Turning to `COc1cc(OCc2ccc(/C=C/C(=O)NCCCCCC(=O)OC(C)(C)C)cc2)c(Cl)cc1C(=O)N[C@H]1[C@@H](OC)O[C@H](CO)[C@@H](O)[C@@H]1O` (relative stereo) [Example 392], the pIC50 under setting [1] was 5.74.

Consider `COc1cc(OCc2nc3ccccc3n2CCCCCCCC(=O)O)c(Cl)cc1C(=O)N[C@H]1[C@@H](OC)O[C@H](CO)[C@@H](O)[C@@H]1O` (relative stereo) [Example 482], for which the pIC50 under setting [1] is 5.09.

Regarding `C=CCO[C@@H]1O[C@H](COC(=O)c2ccc(OCc3ccccc3)c(OC)c2)[C@@H](O)[C@H](O)[C@H]1O` [Example 11], the pIC50 under setting [1] is 4.17.

As to `CO[C@@H]1O[C@H](COC(=O)c2cc(C)c(OCc3ccccc3)c(C)c2)[C@@H](O)[C@H](O)[C@H]1O` [Example 19], the negative-log IC50 (pIC50) under setting [1] is 4.20.

As for `COc1cc(C(=O)OC[C@H]2O[C@@H](OCC[Si](C)(C)C)[C@H](O)[C@@H](O)[C@@H]2O)cc(Cl)c1OCCc1ccccc1` [Example 28], the pIC50 (A2780, 20 min) was 4.08.

For `CO[C@@H]1O[C@H](COC(=O)c2cc(OCc3ccccc3)ccc2C)[C@@H](O)[C@H](O)[C@H]1O` [Example 34], the pIC50 under setting [1] was 4.39.

`COc1cc(C(=O)OC[C@H]2O[C@@H](OCC[Si](C)(C)C)[C@H](O)[C@@H](O)[C@@H]2O)cc(Cl)c1OC(=O)c1ccccc1` [Example 36] gave a negative logarithm of the IC50 (pIC50) (A2780, 20 min) of 4.32.

On to `COc1cc(C(=O)OC[C@H]2OC(O)[C@H](O)[C@@H](O)[C@@H]2O)cc(Cl)c1OCCc1ccccc1` (stereo partly shown) [Example 56], for which the pIC50 under setting [1] was 4.36.

Consider `Cc1ccc(OCc2ccccc2)cc1C(=O)OC[C@H]1OC(O)[C@H](O)[C@@H](O)[C@@H]1O` (stereo partly shown) [Example 61], for which the pIC50 under setting [1] is 4.53.

As for `CO[C@H]1O[C@H](CO)[C@@H](O)[C@H](O)[C@H]1OC(=O)c1cc(Cl)cc(OCc2ccccc2)c1` [Example 74], the pIC50 under setting [1] is 4.28.

Take `C#CCCC(=O)Nc1cccc(COc2c(Cl)cc(C(=O)O[C@@H]3C(O)[C@H](O)[C@@H](CO)O[C@@H]3OC)cc2OC)c1` (stereo partly shown) [Example 78]: the pIC50 under setting [1] was 4.70.

On to `COc1cccc(COc2c(Cl)cc(C(=O)O[C@H]3[C@@H](OC)O[C@H](CO)[C@@H](O)[C@@H]3O)cc2OC)c1` [Example 88], for which the negative logarithm of the IC50 (pIC50) under setting [1] is 4.65.

In the case of `Cc1ccc(OCc2ccccc2)cc1C(=O)OC[C@H]1OC(O)[C@H](O)[C@@H](O)[C@H]1O` (stereo partly shown) [Example 102], the pIC50 under setting [1] was 4.86.

As to `CO[C@H]1O[C@H](CO)[C@@H](O)[C@H](O)[C@H]1OC(=O)c1cc(Cl)c(OCc2nccn2Cc2ccccc2)c(Cl)c1` [Example 117], the pIC50 under setting [1] is 5.00.

Consider `COc1ncc(COc2c(Cl)c(C)c(C(=O)O[C@H]3[C@@H](OC)O[C@H](CO)[C@@H](O)[C@@H]3O)c(OC)c2Cl)cc1Cl` [Example 126], for which the pIC50 under setting [1] was 5.25.

Consider `COc1cc(C(=O)O[C@H]2[C@@H](O)[C@@H](CO)O[C@H](OC)[C@@H]2O)cc(Cl)c1OCc1nc2ccccc2n1C(C)C` [Example 127], for which, under setting [1], the negative logarithm of the IC50 (pIC50) was 4.49.

Turning to `COc1cc(OCc2ccccc2)cc(C(=O)OC[C@H]2O[C@@H](OC)[C@H](O)[C@@H](O)[C@@H]2O)c1` [Example 136], under setting [1], the pIC50 was 4.12.

As to `CO[C@@H]1O[C@H](COC(=O)c2cc(OCc3ccccc3)c3cc[nH]c3c2)[C@@H](O)[C@H](O)[C@H]1O` [Example 145], under setting [1], the pIC50 is 4.34.

For the compound `COc1cc(C(=O)OC[C@H]2O[C@@H](OC)[C@H](O)[C@@H](O)[C@@H]2O)cc(Cl)c1OCc1nc2ccccc2n1C(C)C` [Example 151], under setting [1], the pIC50 was 4.73.

`COc1cc(C(=O)N[C@H]2[C@@H](OC)O[C@H](CO)[C@@H](O)[C@@H]2O)cc(Cl)c1OCc1ccccc1` [Example 179]: the pIC50 under setting [1] is 4.42.

For the compound `COc1c(Cl)c(OCc2cccc(CNC(=O)OC(C)(C)C)c2)c(Cl)c(C)c1C(=O)N[C@H]1[C@@H](OC)O[C@H](CO)[C@@H](O)[C@@H]1O` [Example 181], under setting [1], the pIC50 is 4.76.

For `C#CCCCn1c(COc2c(Cl)cc(C(=O)O[C@H]3[C@@H](OC)O[C@H](CO)[C@@H](O)[C@@H]3O)cc2OC)nc2ccccc21` [Example 186], the negative-log IC50 (pIC50) under setting [1] was 5.22.

With `COc1ccc(COc2c(Cl)cc(C(=O)O[C@H]3[C@@H](OC)O[C@H](CO)[C@@H](O)[C@@H]3O)cc2OC)cc1` [Example 190], under setting [1], the pIC50 was 4.99.

Consider `C#CCCC(=O)Nc1cccc(COc2c(Cl)cc(C(=O)O[C@@H]3[C@@H](O)[C@@H](OC)O[C@H](CO)[C@H]3O)c(C)c2Cl)c1` [Example 205], for which the pIC50 under setting [1] was 4.56.

For `CO[C@H]1O[C@H](CO)[C@@H](O)[C@H](O)[C@H]1NC(=O)c1cc(Cl)c(OCc2cccc(C(=O)OC(C)(C)C)c2)c(Cl)c1C` [Example 209], under setting [1], the pIC50 was 5.60.

Turning to `COc1ncc(COc2c(Cl)cc(C(=O)N[C@H]3[C@@H](OC)O[C@H](CO)[C@@H](O)[C@@H]3O)c(C)c2Cl)cc1Cl` [Example 210], the pIC50 under setting [1] is 6.22.

As to `CCn1c(COc2c(Cl)cc(C(=O)O[C@H]3[C@@H](OC)O[C@H](CO)[C@@H](O)[C@@H]3O)cc2OC)nc2ccc(Br)cc21` [Example 213], under setting [1], the pIC50 was 5.82.

For the compound `COc1ncc(COc2c(Cl)cc(C(=O)O[C@H]3[C@@H](OC)O[C@H](CO)[C@@H](O)[C@@H]3O)c(C)c2Cl)cc1Cl` [Example 215], the negative-log IC50 (pIC50) under setting [1] is 5.96.

Turning to `COc1cc(C(=O)O[C@H]2[C@@H](OC)O[C@H](CO)[C@@H](O)[C@@H]2O)cc(Cl)c1OCc1cnc(OC)c(Cl)c1` [Example 216], the negative-log IC50 (pIC50) under setting [1] was 5.66.

As for `COc1cc(OCc2ccc(/C=C/C(=O)NCCCC(=O)OC(C)(C)C)cc2)c(Cl)cc1C(=O)N[C@H]1[C@@H](OC)O[C@H](CO)[C@@H](O)[C@@H]1O` [Example 236], the pIC50 under setting [1] was 6.40.

Consider `COc1cc(C(=O)N[C@H]2[C@@H](OC)O[C@H](CO)[C@@H](O)[C@@H]2O)cc(Cl)c1OCc1nc2ccccc2n1C(C)C` [Example 238], for which the pIC50 under setting [1] was 4.66.

As for `CO[C@H]1O[C@H](CO)[C@@H](O)[C@H](O)[C@H]1NC(=O)c1cc(Cl)c(OCc2ccc3c(cnn3C)c2)c(Cl)c1C` [Example 240], the negative-log IC50 (pIC50) under setting [1] is 5.22.

As for `COc1cccc(CCOc2c(Cl)cc(C(=O)O[C@H]3[C@@H](OC)O[C@H](CO)[C@@H](O)[C@@H]3O)c(C)c2Cl)c1` [Example 241], the negative logarithm of the IC50 (pIC50) under setting [1] was 4.61.

With `CO[C@H]1O[C@H](CO)[C@@H](O)[C@H](O)[C@H]1OC(=O)c1cc(Cl)c(OCCc2cccc(Cl)c2)c(Cl)c1C` [Example 242], the negative logarithm of the IC50 (pIC50) under setting [1] was 4.70.

Turning to `CO[C@H]1O[C@H](CO)[C@@H](O)[C@H](O)[C@H]1OC(=O)c1cc(Cl)c(OCCc2ccc(C)cc2)c(Cl)c1C` [Example 243], the negative logarithm of the IC50 (pIC50) under setting [1] is 4.56.

Consider `CO[C@H]1O[C@H](CO)[C@@H](O)[C@H](O)[C@H]1OC(=O)c1cc(Cl)c(OCCc2ccc(Cl)cc2)c(Cl)c1C` [Example 244], for which the pIC50 under setting [1] was 4.65.

Regarding `COC(=O)c1ccc(COc2c(Cl)cc(C(=O)N[C@H]3[C@@H](OC)O[C@H](CO)[C@@H](O)[C@@H]3O)c(C)c2Cl)cn1` [Example 245], the negative-log IC50 (pIC50) under setting [1] is 4.20.

As to `COC(=O)c1cnc(COc2c(Cl)cc(C(=O)N[C@H]3[C@@H](OC)O[C@H](CO)[C@@H](O)[C@@H]3O)c(C)c2Cl)cn1` [Example 246], the pIC50 under setting [1] was 4.29.

For the compound `COC(=O)c1ccc(COc2c(Cl)cc(C(=O)O[C@H]3[C@@H](OC)O[C@H](CO)[C@@H](O)[C@@H]3O)c(C)c2Cl)cn1` [Example 252], under setting [1], the negative-log IC50 (pIC50) is 5.19.

For the compound `COC(=O)c1cnc(COc2c(Cl)cc(C(=O)O[C@H]3[C@@H](OC)O[C@H](CO)[C@@H](O)[C@@H]3O)c(C)c2Cl)cn1` [Example 253], the pIC50 under setting [1] is 5.15.

Take `CO[C@H]1O[C@H](CO)[C@@H](O)[C@H](O)[C@H]1OC(=O)c1cc(Cl)c(OCc2cn3c(C)cccc3n2)c(Cl)c1C` [Example 255]: the pIC50 under setting [1] is 6.52.

As to `CO[C@H]1O[C@H](CO)[C@@H](O)[C@H](O)[C@H]1NC(=O)c1cc(Cl)c(OCc2cn3c(C)cccc3n2)c(Cl)c1C` [Example 256], the negative logarithm of the IC50 (pIC50) under setting [1] was 5.96.

Turning to `COC(=O)c1cc(COc2c(Cl)cc(C(=O)N[C@H]3[C@@H](OC)O[C@H](CO)[C@@H](O)[C@@H]3O)c(C)c2Cl)ccc1Cl` [Example 257], the negative logarithm of the IC50 (pIC50) under setting [1] was 5.14.

In the case of `CO[C@H]1O[C@H](CO)[C@@H](O)[C@H](O)[C@H]1OC(=O)c1cc(Cl)c(OCc2cccc(CO)n2)c(Cl)c1C` [Example 259], the pIC50 under setting [1] is 4.91.

In the case of `CO[C@H]1O[C@H](CO)[C@@H](O)[C@H](O)[C@H]1NC(=O)c1cc(Cl)c(OCc2ccc3c(c2)nnn3C)c(Cl)c1C` [Example 260], the negative logarithm of the IC50 (pIC50) under setting [1] is 4.12.

Consider `CO[C@H]1O[C@H](CO)[C@@H](O)[C@H](O)[C@H]1OC(=O)c1cc(Cl)c(OCc2ccc3c(c2)nnn3C)c(Cl)c1C` [Example 261], for which, under setting [1], the pIC50 is 6.30.

As for `COC(=O)c1cc(COc2c(Cl)cc(C(=O)O[C@H]3[C@@H](OC)O[C@H](CO)[C@@H](O)[C@@H]3O)c(C)c2Cl)ccc1Cl` [Example 262], the negative logarithm of the IC50 (pIC50) under setting [1] is 6.00.

Consider `CO[C@H]1O[C@H](CO)[C@@H](O)[C@H](O)[C@H]1OC(=O)c1cc(Cl)c(OCc2cccc(C(=O)OC(C)(C)C)c2)c(Cl)c1C` [Example 269], for which the pIC50 under setting [1] was 4.87.

Values taken from US20210170033A1, “NOVEL CONJUGATES OF A PHARMACEUTICAL AGENT AND A MOIETY CAPABLE OF BINDING TO A GLUCOSE SENSING PROTEIN” (SANOFI, priority 2017, published 2021).
